US7678386B2, “Liposomes coated with selected antibodies that bind to aminophospholipids” (Board of Regents the University of Texas, priority 2002, dated 2010)
Read-outs that look alike come from different tables or passages of the source.

Assay: Reactivity with plastic-immobilized phospholipid (ELISA)
Details: read-out: EC50 of binding
Procedure: Phospholipids were dissolved in n-hexane to a concentration of 50 μg/ml. 100 μl of this solution was added to wells of 96-well microtiter plates. After evaporation of the solvent in air, the plates were blocked for 2 h with 10% fetal bovine serum diluted in DPBS containing 2 mM Ca^2+ (binding buffer).
9D2 antibody or annexin V were diluted in the binding buffer in the presence of 10% serum at an initial concentration of 6.7 nM. Serial two-fold dilutions were prepared in the plates (100 μl per well). The plates were then incubated for 2 h at room temperature. The plates were washed and the 9D2 and annexin V were detected by goat anti-rat IgM conjugated to HRP and rabbit anti-human annexin V followed by goat anti-rabbit IgG conjugated to HRP (all diluted 1:1000), respectively. Secondary reagents were detected by using chromogenic substrate OPD followed by reading plates at 490 nm using a microplate reader (Molecular Devices, Palo Alto, Calif.).
The specificity of the 9D2 antibody binding was validated by using control rat IgM of irrelevant specificity (Pharmingen, San Diego, Calif.). The specificity of annexin V binding to phospholipids, which is Ca^2+-dependent, was determined by diluting the reagent in the DPBS containing 5 mM EDTA. Additional negative controls consisted of washing the plates with the binding buffer containing 0.2% of a detergent Tween 20. This treatment extracts lipids, thus removing the phospholipid that was absorbed to plastic. Neither 9D2 antibody nor annexin V bound to detergent-washed plates.

Annexin V: high affinity PS binding ligand; natural ligand of anionic phospholipids and PE
EC50 (CL): 130 pM | EC50 (PA): 100 pM | EC50 (PC): > 8000 pM | EC50 (PE): 100 pM | EC50 (PG): 250 pM | EC50 (PI): 50 pM | EC50 (PS): 100 pM | EC50 (SM): > 8000 pM
